Data on twelve compounds can be found in US8017792B2, “1-thio-D-glucitol derivatives” (Taisho Pharmaceutical Co., Ltd., priority 2005, dated 2011).

One series deals with T1, Human SGLT1 (Homo sapiens, UniProt P13866).
T1 construct: expressed in transfected cells; host or cells: CHO-K1
T1 sequence (P13866 1-664): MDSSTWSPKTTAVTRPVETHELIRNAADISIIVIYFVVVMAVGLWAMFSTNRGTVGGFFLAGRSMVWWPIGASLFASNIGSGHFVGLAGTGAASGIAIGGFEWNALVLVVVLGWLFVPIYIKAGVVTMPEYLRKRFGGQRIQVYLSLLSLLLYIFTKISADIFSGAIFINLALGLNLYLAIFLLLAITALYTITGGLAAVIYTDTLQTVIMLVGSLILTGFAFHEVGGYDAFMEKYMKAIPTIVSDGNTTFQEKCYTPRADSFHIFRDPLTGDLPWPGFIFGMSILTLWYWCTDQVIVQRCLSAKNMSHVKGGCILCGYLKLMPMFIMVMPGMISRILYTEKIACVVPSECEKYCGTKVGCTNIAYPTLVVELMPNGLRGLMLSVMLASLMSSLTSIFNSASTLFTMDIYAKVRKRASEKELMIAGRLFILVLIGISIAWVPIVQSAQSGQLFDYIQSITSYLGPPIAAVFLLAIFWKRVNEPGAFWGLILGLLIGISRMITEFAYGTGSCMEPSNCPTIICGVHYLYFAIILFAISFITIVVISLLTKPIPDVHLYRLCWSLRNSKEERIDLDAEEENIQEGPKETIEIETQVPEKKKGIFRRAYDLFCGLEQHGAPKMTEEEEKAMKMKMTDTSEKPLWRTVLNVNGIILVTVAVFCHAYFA
The series is described as follows: Sodium-dependent sugar uptake inhibition test in CHO-K1 cells stably expressing human SGLT1 (Test Example 2). Format: cell-based. Particulars: [14C]methyl-α-D-glucopyranoside 0.1 mM, 37° C., 30 minutes. On the procedure: (§1) Human SGLT1 sequence (NM_000343) was reverse-transcripted from human small intestinal mRNA, then amplified, and then introduced into pCMV-tag5A from Stratagene Corporation. Human SGLT2 sequence (NM_003041) was prepared from human nephric mRNA as with the above method, and then introduced into pcDNA3.1+hygro from Invitrogen Corporation. Each cloned sequence was confirmed to be identical with the reported sequence.
(§2) CHO-K1 cells were transfected with the human SGLT1 and human SGLT2 expression vectors using Lipofectamine 2000 (Invitrogen Corporation). SGLT expression cells were cultured in the presence of geneticin (SGLT1) or hygromycin B (SGLT2) of the concentration of 500 μg/mL to select resistant strains. Cells were obtained using sugar uptake specific activity as an index in the following system.
(§3) Cells stably expressing human SGLT1 and human SGLT2 were used in the sodium-dependent sugar uptake activity inhibition test. Cells were incubated in 1 mL of a pretreatment buffer solution (140 mM choline chloride, 2 mM KCl, 1 mM CaCl2, 1 mM MgCl2, 10 mM HEPES/5 mM Tris, pH 7.4) for 20 minutes. The pretreatment buffer solution was removed and 200 μL of an uptake buffer containing test compounds (methyl-α-D-glucopyranoside containing [^14C]methyl-α-D-glucopyranoside (0.1 mM for SGLT1 inhibition, 1 mM for SGLT2 inhibition), 140 mM NaCl, 2 mM KCl, 1 mM CaCl2, 1 mM MgCl2, 10 mM HEPES/5 mM Tris, pH 7.4) were added, and uptake reaction was performed at 37° C. for 30 minutes (SGLT1) or for one hour (SGLT2). After the reaction, cells were washed with 1 mL of a washing buffer (10 mM methyl-α-D-glucopyranoside, 140 mM choline chloride, 2 mM KCl, 1 mM CaCl2, 1 mM MgCl2, 10 mM HEPES/5 mM Tris, pH 7.4) twice and dissolved in 400 μL of 0.2 M NaOH solution. After Aquazole 2 (Perkin Elmer Corporation) was added and mixed well, radioactivity was measured with a liquid scintillation counter (Beckman Coulter Corporation). A buffer for uptake which contained no test compound was prepared as a control group. Another buffer solution for uptake containing choline chloride in place of NaCl was also prepared for basic uptake.

A further series has as its target T2, Human SGLT2 (Homo sapiens, UniProt P31639).
T2 construct: expressed in transfected cells; host or cells: CHO-K1
T2 sequence (P31639 1-672): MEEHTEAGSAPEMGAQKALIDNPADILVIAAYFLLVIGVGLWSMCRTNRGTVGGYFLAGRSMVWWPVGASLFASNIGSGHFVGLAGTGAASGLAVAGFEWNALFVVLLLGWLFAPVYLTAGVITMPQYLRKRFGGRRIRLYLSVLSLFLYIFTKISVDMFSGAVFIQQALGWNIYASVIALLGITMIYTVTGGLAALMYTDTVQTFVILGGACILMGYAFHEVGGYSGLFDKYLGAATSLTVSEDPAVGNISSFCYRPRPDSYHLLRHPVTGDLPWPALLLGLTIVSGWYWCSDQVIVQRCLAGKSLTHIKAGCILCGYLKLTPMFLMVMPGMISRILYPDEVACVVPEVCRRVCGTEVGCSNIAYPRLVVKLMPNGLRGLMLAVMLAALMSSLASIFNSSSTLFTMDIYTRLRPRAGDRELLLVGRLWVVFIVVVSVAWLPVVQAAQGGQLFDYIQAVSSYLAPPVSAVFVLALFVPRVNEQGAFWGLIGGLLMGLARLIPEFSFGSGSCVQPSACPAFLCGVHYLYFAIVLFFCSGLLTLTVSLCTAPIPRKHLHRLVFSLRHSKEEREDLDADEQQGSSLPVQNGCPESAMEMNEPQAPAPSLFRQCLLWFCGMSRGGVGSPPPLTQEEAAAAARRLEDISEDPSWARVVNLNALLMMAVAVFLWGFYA
In words: Sodium-dependent sugar uptake inhibition test in CHO-K1 cells stably expressing human SGLT2 (Test Example 2). Format: cell-based. Particulars: for IC50: CHO-K1 cells, [14C]methyl-α-D-glucopyranoside 1 mM, 37° C., one hour; for SGLT1/SGLT2: ratio of IC50 human SGLT1 to IC50 human SGLT2. On the procedure: as §1, §2, §3

Molecules are shown by their SMILES. Counter-ions that a name gives are not always drawn.

As for `Clc1ccc([C@@H]2S[C@H](COCc3ccccc3)[C@@H](OCc3ccccc3)[C@H](OCc3ccccc3)[C@H]2OCc2ccccc2)cc1Cc1cc2ccccc2s1` [Compound 57], the melting point (usually the temperature of the solid-liquid transition) lay in the range of 140 to 143 °C.
Still for that read-out and setting: under `CCOc1ccc(Cc2cc([C@@H]3S[C@H](CO)[C@@H](O)[C@H](O)[C@H]3O)c(OC)cc2Cl)cc1` (as salt: Na) [Compound 99, (1S)-1,5-anhydro-1-[4-chloro-5-(4-ethoxybenzyl)-2-methoxyphenyl]-1-thio-D-glucitol] stands 177 to 179 °C.
Same read-out and setting: the value for `COc1ccc([C@@H]2S[C@H](COCc3ccccc3)[C@@H](OCc3ccccc3)[C@H](OCc3ccccc3)[C@H]2OCc2ccccc2)cc1Cc1cc2ccccc2s1` [Compound 56] was 133 to 135 °C; that for `CCOc1ccc(Cc2cc([C@@H]3S[C@H](COCc4ccccc4)[C@@H](OCc4ccccc4)[C@H](OCc4ccccc4)[C@H]3OCc3ccccc3)ccc2Cl)cc1` [Compound 3] was 126 to 128 °C.
Take `COc1cc(OC)c([C@@H]2S[C@H](CO)[C@@H](O)[C@H](O)[C@H]2O)cc1Cc1cc2ccccc2s1` [Compound 131, (1S)-1,5-Anhydro-1-[3-[(1-benzothien-2-yl)methyl]-4,6-dimethoxyphenyl]-1-thio-D-glucitol]: on Human SGLT1, the 50% inhibitory concentration (IC50) (in general, the concentration that inhibits the measured activity by half) turned out to be 4.1 µM. Moreover, at Human SGLT2, the IC50 worked out at 0.89 µM and the SGLT1/SGLT2 was 4.7.
For the compound `OC[C@H]1S[C@@H](c2ccc(Cl)c(Cc3ccc(O)cc3)c2)[C@H](O)[C@@H](O)[C@@H]1O` [Compound 94, (1S)-1,5-Anhydro-1-[4-chloro-3-(4-hydroxybenzyl)phenyl]-1-thio-D-glucitol], at Human SGLT1, inhibition was half-maximal at 0.3 µM (IC50). Further, on Human SGLT2, the half-maximal inhibitory concentration (IC50) worked out at 0.25 µM and the SGLT1/SGLT2 was determined as 1.3.
Consider `CCOc1ccc(Cc2cc([C@@H]3S[C@H](CO)[C@@H](O)[C@H](O)[C@H]3O)ccc2Cl)c(F)c1` [Compound 91, (1S)-1,5-Anhydro-1-[4-chloro-3-(2-fluoro-4-ethoxybenzyl)phenyl]-1-thio-D-glucitol], for which, on Human SGLT1, the half-inhibitory concentration (IC50) came to 1.7 µM. Further, at Human SGLT2, half-maximal inhibition (IC50) required 0.11 µM and the SGLT1/SGLT2 is 15.5.
`CSc1ccc(Cc2cc([C@@H]3S[C@H](CO)[C@@H](O)[C@H](O)[C@H]3O)ccc2Cl)cc1` [Compound 93, (1S)-1,5-Anhydro-1-[4-chloro-3-(4-methylthiobenzyl)phenyl]-1-thio-D-glucitol] came in with a concentration for half-maximal inhibition (IC50) on Human SGLT1 of 0.4 µM. In addition, on Human SGLT2, the IC50 was 0.021 µM and the SGLT1/SGLT2 was 21.0.
Take `CCOc1ccc(Cc2ccc(OC)c([C@@H]3S[C@H](CO)[C@@H](O)[C@H](O)[C@H]3O)c2)cc1` [Compound 78, (1S)-1,5-Anhydro-1-[3-(4-ethoxybenzyl)-6-methoxy-phenyl]-1-thio-D-glucitol]: on Human SGLT1, it took 120 µM to reach half-maximal inhibition (IC50). On Human SGLT2, 1.04 µM corresponded to half-maximal inhibition (IC50) and the SGLT1/SGLT2 was determined as 115.4.
As for `CCOc1ccc(Cc2cc([C@@H]3S[C@H](CO)[C@@H](O)[C@H](O)[C@H]3O)ccc2F)cc1` [Compound 81, (1S)-1,5-Anhydro-1-[3-(4-ethoxybenzyl)-4-fluorophenyl]-1-thio-D-glucitol], the half-inhibitory concentration (IC50) at Human SGLT1 amounted to 6.5 µM. Moreover, at Human SGLT2, inhibition was half-maximal at 0.6 µM (IC50) and the SGLT1/SGLT2 is listed as 10.9.
For `CC(C)c1ccc(Cc2cc([C@@H]3S[C@H](CO)[C@@H](O)[C@H](O)[C@H]3O)ccc2Cl)cc1` [Compound 96, (1S)-1,5-Anhydro-1-[4-chloro-3-(4-isopropylbenzyl)phenyl]-1-thio-D-glucitol], in that order: 7.3 µM, 0.062 µM and 116.3.
For `COc1cc(C)c(Cc2ccc(C)cc2)cc1[C@@H]1S[C@H](CO)[C@@H](O)[C@H](O)[C@H]1O` [Compound 104, (1S)-1,5-Anhydro-1-[3-(4-methylbenzyl)-6-methoxy-4-methylphenyl]-1-thio-D-glucitol], in that order: 1 µM, 0.034 µM and 29.8.
